Data from PubChem BioAssay (NCI).
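Following 48 hours of exposure in 96-well plates, responses at five concentrations were used to interpolate endpoints linearly. Abbreviation: GI50, concentration required for 50% inhibition of growth. Definition used: TGI = concentration required for complete inhibition of growth.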

What was measured:
Test in all cases: NCI-60 cell line screen, 48 h
TK-10 renal = tested on: TK-10 renal
SNB-75 CNS = tested on: SNB-75 CNS
SF-539 CNS = tested on: SF-539 CNS
U251 CNS = tested on: U251 CNS
COLO 205 colon = tested on: COLO 205 colon
HL-60(TB) leukemia = tested on: HL-60(TB) leukemia
NCI-H460 lung = tested on: NCI-H460 lung
SR leukemia = tested on: SR leukemia
HS 578T breast = tested on: HS 578T breast
EKVX NSCLC = tested on: EKVX NSCLC
OVCAR-8 ovarian = tested on: OVCAR-8 ovarian
SK-MEL-5 melanoma = tested on: SK-MEL-5 melanoma
UO-31 renal = tested on: UO-31 renal
HCC-2998 colon = tested on: HCC-2998 colon
M14 melanoma = tested on: M14 melanoma
SNB-19 CNS = tested on: SNB-19 CNS
RPMI-8226 leukemia = tested on: RPMI-8226 leukemia
CAKI-1 renal = tested on: CAKI-1 renal
MDA-MB-231 breast = tested on: MDA-MB-231 breast
T-47D breast = tested on: T-47D breast
SK-MEL-28 melanoma = tested on: SK-MEL-28 melanoma
A498 renal = tested on: A498 renal
RXF 393 renal = tested on: RXF 393 renal
NCI/ADR-RES ovarian = tested on: NCI/ADR-RES ovarian
LOX IMVI melanoma = tested on: LOX IMVI melanoma
SK-MEL-2 melanoma = tested on: SK-MEL-2 melanoma
HT29 colon = tested on: HT29 colon
HOP-62 NSCLC = tested on: HOP-62 NSCLC
786-0 renal = tested on: 786-0 renal

Structure (SMILES): O=c1cccc(C#CC#CCCCO)o1
- GI50 (TK-10 renal): 2.97 µM
- TGI (TK-10 renal): 9.55 µM
- GI50 (SNB-75 CNS): 18.2 µM
- TGI (SNB-75 CNS): 66.3 µM
- GI50 (SF-539 CNS): 4.6 µM
- TGI (SF-539 CNS): > 43.5 µM
- GI50 (U251 CNS): 2.74 µM
- TGI (U251 CNS): 7.96 µM
- GI50 (COLO 205 colon): 2.94 µM
- TGI (COLO 205 colon): 7.87 µM
- GI50 (HL-60(TB) leukemia): 2.24 µM
- TGI (HL-60(TB) leukemia): 5.39 µM
- GI50 (NCI-H460 lung): 9.55 µM
- TGI (NCI-H460 lung): 33.6 µM
- GI50 (SR leukemia): 0.158 µM
- TGI (SR leukemia): 2.37 µM
- GI50 (HS 578T breast): 9.68 µM
- TGI (HS 578T breast): 25.5 µM
- GI50 (EKVX NSCLC): 3 µM
- TGI (EKVX NSCLC): 7.6 µM
- GI50 (OVCAR-8 ovarian): 4.33 µM
- TGI (OVCAR-8 ovarian): > 35.8 µM
- GI50 (SK-MEL-5 melanoma): 12.3 µM
- TGI (SK-MEL-5 melanoma): 27.3 µM
- GI50 (UO-31 renal): 2.17 µM
- TGI (UO-31 renal): > 100 µM
- GI50 (HCC-2998 colon): 2.58 µM
- TGI (HCC-2998 colon): 7.38 µM
- GI50 (M14 melanoma): 4.76 µM
- TGI (M14 melanoma): 21.5 µM
- GI50 (SNB-19 CNS): 9.13 µM
- TGI (SNB-19 CNS): 39.1 µM
- TGI (RPMI-8226 leukemia): > 26.7 µM
- GI50 (CAKI-1 renal): 2.9 µM
- TGI (CAKI-1 renal): 8.17 µM
- GI50 (MDA-MB-231 breast): 1.99 µM
- TGI (MDA-MB-231 breast): 4.82 µM
- GI50 (T-47D breast): 3.64 µM
- TGI (T-47D breast): 27.3 µM
- GI50 (SK-MEL-28 melanoma): 5.85 µM
- TGI (SK-MEL-28 melanoma): 22.2 µM
- GI50 (A498 renal): 23.7 µM
- TGI (A498 renal): 40.5 µM
- GI50 (RXF 393 renal): 3.27 µM
- TGI (RXF 393 renal): 11.5 µM
- GI50 (NCI/ADR-RES ovarian): 9.47 µM
- TGI (NCI/ADR-RES ovarian): > 44.2 µM
- GI50 (LOX IMVI melanoma): 2.51 µM
- TGI (LOX IMVI melanoma): > 27.9 µM
- GI50 (SK-MEL-2 melanoma): 12.6 µM
- TGI (SK-MEL-2 melanoma): > 100 µM
- GI50 (HT29 colon): 4.66 µM
- TGI (HT29 colon): > 100 µM
- GI50 (HOP-62 NSCLC): 6.26 µM
- TGI (HOP-62 NSCLC): 12.2 µM
- GI50 (786-0 renal): 5.27 µM
- TGI (786-0 renal): 14 µM
